Columns and labels:
SKOV3 [1] = experiment: Cell cycle and sub-G1 analysis (PI flow cytometry); format: cell-based, human; conditions: SKOV3, 24 hours
Procedure: (§1) The ovarian cancer cells and the prostate cancer cells respectively were treated with protoapigenone at different concentrations (0, 2.5, 5 and 10 μM) for 24 hours and 6 hours (or 12 hours). These cells were harvested by trypsin and fixed with 70% ethanol for 1 hour, washed with phosphate buffered saline (PBS) twice, and resuspended in propidium iodide (PI)/RNase A solution for 30 minutes. In accordance with the mechanism of DNA stained with propidium iodide, the cell cycle and sub-G1 distribution were detected by the FACScan flow cytometry (Becton Dickinson, San Jose, Calif.), and data analysis was done with CellQuest software (BD Bioscience).

MDAH-2774 [2] = experiment: Cell cycle and sub-G1 analysis (PI flow cytometry); format: cell-based, human; conditions: MDAH-2774, 24 hours
Procedure: as §1

JNK½ = experiment: Immunoblotting, phosphorylation in LNCap cells; format: cell-based, human; conditions: exposure for 1 hour
Text: (§2) The concentration of protein supernatant was further determined using the Bio-Rad protein assay kit (Bio-Rad Laboratories, Hercules, Calif.). Whole cell lysates were separated on polyacrylamide sodium dodecyl sulfate (SDS) gels and the proteins were transferred onto the nitrocellulose membrane. Proteins were detected sequentially by the specific primary antibodies, followed by peroxidase-conjugated secondary antibodies, and visualized by the Enhanced chemiluminescence detection system (Amersham, N.J.).

p38 MAPK = experiment: Immunoblotting, phosphorylation in LNCap cells; format: cell-based, human; conditions: LNCap, exposure for 1 hour
Text: as §2

T47D = experiment: XTT cell proliferation assay (cytotoxicity); format: cell-based; conditions: Homo sapiens; breast cancer cell line T47D
Procedure: (§3) Cells were seeded at 7×10^3 per well in 96-well culture plates before treatment with different concentrations of protoapigenone for 12, 24 and/or 48 hours. Next, the cytotoxicity of protoapigenone was determined using XTT cell proliferation assay (Sigma, St. Louis, Mo.). The absorbance of wavelength at 490 nm (OD490) and 650 nm (OD650) were determined respectively by enzyme-linked immunosorbent assay (ELISA) reader, and 50% of inhibitory concentration (IC50) was calculated by the value of OD490-OD650. In addition, in order to evaluate the long-term effect, the cells were treated with different concentration of protoapigenone for 3 hours, then were incubated with fresh medium for 14 days so as to form colonies. Finally, the cells were stained with crystal violet and were observed under the microscope.

C33A = experiment: XTT cell proliferation assay (cytotoxicity); format: cell-based; conditions: Homo sapiens, C-33-A; cervical cancer cell line C33A
Procedure: as §3

MDA-MB-468 = experiment: XTT cell proliferation assay (cytotoxicity); format: cell-based; conditions: Homo sapiens; breast cancer cell line MDA-MB-468
Procedure: as §3

HeLa [3] = experiment: XTT cell proliferation assay (cytotoxicity); format: cell-based; conditions: Homo sapiens; cervical cancer cell line HeLa
Procedure: as §3

SKOV3 [4] = experiment: XTT cell proliferation assay (cytotoxicity); format: cell-based; conditions: Homo sapiens, SK-OV-3; ovarian cancer cell line SKOV3
Procedure: as §3

[5] = XTT cell proliferation assay (cytotoxicity); format: cell-based
Procedure: as §3

MDAH-2774 [6] = experiment: Annexin V apoptosis assay; format: cell-based, human; conditions: MDAH-2774, 10 μM, 3 hours
Procedure: The theory of this assay is to detect early apoptotic cells during the apoptotic progression. The ovarian cancer cells and the prostate cancer cells respectively were incubated with protoapigenone at 10 μM for 3 hours on chamber slides, washed with cold PBS twice and stained with a binding buffer containing annexin V-fluorescein isothiocyanate (FITC) (1 mg/ml; Strong Biotech, Taipei, Taiwan) and 4,6-diamidino-2-phenylinodole (Sigma-Aldrich) at 25° C. for 15 minutes. The stained cells were washed with PBS twice and observed under the fluorescent microscope.

HeLa [7] = experiment: Cell cycle distribution; format: cell-based, human
RT4 = experiment: XTT cell proliferation assay (growth inhibition); format: cell-based, human
Procedure: as §3

Hep 3B = experiment: XTT cell proliferation assay (growth inhibition); format: cell-based, human
Procedure: as §3

T24 = experiment: XTT cell proliferation assay (growth inhibition); format: cell-based, human
Procedure: as §3

LNCap = experiment: XTT cell proliferation assay (growth inhibition); format: cell-based, human; conditions: Homo sapiens; LNCap, 48-hour treatment
Procedure: as §3

MDAH-2774 [8] = experiment: Clonogenic assay (colony formation); format: cell-based, human; conditions: 3 hours treatment, 14 days in fresh medium
Procedure: as §3

[9] = test system: LNCap prostate cancer cells; experiment: Nude mice xenograft model, tumor volume; format: in vivo; conditions: 5 weeks
Procedure: MDAH-2774 human ovarian cancer cells of 2×10^6 (or LNCap prostate cancer cells of 1×10^6) in 0.1 ml PBS were injected subcutaneously at the right flank of 6-week-old female nude mice (Foxnlun/Foxulun). When tumors became visible (approximately 3×3 mm in size), the mice were randomly grouped and treated intraperitoneally with protoapigenone or vehicle every other day. […] Tumor size and body weight were measured twice a week using calipers, and their tumor volumes were calculated according to a standard formula: width^2×length/2. After treatment with protoapigenone for 5 weeks, the mice xenografted with LNCap cells were sacrificed by deep anesthesia, and the blood sampling by cardiac aspiration was done immediately after anesthesia. Complete blood count of the nude mice blood was determined by Sysmex XE-2100 (TOA Medical Electronics, Kobe, Japan), and the plasma blood urea nitrogen (BUN), creatine (Cr), asparatate aminotransferase (AST), and alanine aminotransferase (ALT) levels were determined by Beckman LX20 (Beckman-Coulter, U.S.A.)

With `O=C1C=CC(O)(c2cc(=O)c3c(O)cc(O)cc3o2)C=C1` [protoapigenone] the “apoptotic sub-G1 peak” value (SKOV3 [1]) was “increases the apoptotic sub-G1 peak”, the cell cycle distribution (SKOV3 [1]; various concentrations) was “enter into S and G2/M phases” and the “apoptotic sub-G1 peak” value (MDAH-2774 [2]) was “increases the apoptotic sub-G1 peak”. The cell cycle distribution (MDAH-2774 [2]; various concentrations) was “enter into S and G2/M phases”, the “phosphorylation of JNK½” value (JNK½) was “dramatic increase” and the “phosphorylation of p38 MAPK” value (p38 MAPK) was “dramatic increase”. For the same compound, the IC50 (T47D) was 5.13 ± 0.23 µM, the IC50 (C33A) was 4.69 ± 0.21 µM and the IC50 (MDA-MB-468) was 3.33 ± 1.25 µM. The IC50 (HeLa [3]) was 3.66 ± 0.61 µM, the IC50 (SKOV3 [4]) was 0.78 ± 0.28 µM and the IC50 ([5]; HOSE 6-3 immortalized ovarian epithelial cells, immortalized human ovarian epithelial cells HOSE 6-3) was 8.98 ± 0.33 µM. For the same compound, the IC50 ([5]; HOSE 11-12 immortalized ovarian epithelial cells, immortalized human ovarian epithelial cells HOSE 11-12) was 10.1 ± 0.53 µM, the IC50 ([5]; MCF-10A immortalized breast epithelial cells, immortalized human breast epithelial cell MCF-10A) was 33.6 ± 0.53 µM and the “cell apoptosis (annexin V-FITC)” value (MDAH-2774 [6]) was 24.5%. For the same compound, the cell cycle distribution (HeLa [7]) was “arrested at G2/M phase”, the “survival rate of RT4 cells” value (RT4; 4 μM and 8 μM, 24 and 48 hours) was “decreased” and the IC50 (RT4; RT-4, human urinary bladder transitional cell papilloma RT4) was 5.11 ± 3.25 µM. The “survival rate of RT4 cells” value (RT4; low concentrations (0.5, 1 and 2 μM)) was “over 100%”, the growth inhibition (Hep 3B; Hep 3B, various concentrations) was “dose-dependent and time-dependent” and the IC50 (Hep 3B; Hep3B, human hepatocellular carcinoma Hep 3B) was 1.86 µM. For the same compound, the IC50 (T24; Homo sapiens, T-24, bladder cancer T24) was 5.52 ± 0.598 µM, the growth inhibition (T24; T24, various concentrations) was “dose-dependent and time-dependent” and the IC50 (LNCap) was 3.7 ± 0.2 µM. The “ratio of colony formation” value (MDAH-2774 [8]) was “decrease along with the increased protoapigenone concentrations”, the average tumor size ([9]; high dose (3.7 μM/g body weight i.p. every other day)) was 1153.0±218.7 mm^3 and the average tumor size ([9]; low dose (0.37 μM/g body weight i.p. every other day)) was 1876.9±428.6 mm^3.

Reference: patent publication US20100062078A1, “PHARMACEUTICAL COMPOSITION FOR TREATING CANCER AND THE SIGNALING PATHWAY THEREOF” (priority 2008, published 2010)
